Measured values reported in patent US20100267561A1, “HERBICIDAL PYRIDAZINONE DERIVATIVES” (priority 2007, published 2010).

Columns and labels:
Format in all cases: in vivo
[1] = test system: barnyardgrass (Echinochloa crus-galli); assay: Test A pre-/postemergence plant response
In short: (§1)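 Greenhouse pot test: loam–sand soil; pre- and postemergence sprays applied same day; post plants 2–10 cm, 1–2 leaves. Readout ~10 d, visual % injury vs untreated (0 = none, 100 = complete control).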

corn (Zea mays) = assay: Test A pre-/postemergence plant response
In short: as §1

[2] = test system: giant foxtail (Setaria faberi); assay: Test A pre-/postemergence plant response
In short: as §1

[3] = test system: large crabgrass (Digitaria sanguinalis); assay: Test A pre-/postemergence plant response
In short: as §1

[4] = test system: morningglory (Ipomoea coccinea); assay: Test A pre-/postemergence plant response
In short: as §1

[5] = test system: pigweed (Amaranthus retroflexus); assay: Test A pre-/postemergence plant response
In short: as §1

[6] = test system: velvetleaf (Abutilon theophrasti); assay: Test A pre-/postemergence plant response
In short: as §1

[7] = test system: canarygrass (Phalaris minor); assay: Test B postemergence plant response; conditions: for Plant response rating, Canarygrass: Postemergence, scale 0 to 100
In short: (§2)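 Visual injury ratings on a 0–100 scale, where 100 means complete control, were made 13 to 15 days after postemergence treatment of greenhouse-grown plants at the 1- to 4-leaf stage.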

[8] = test system: chickweed (Stellaria media); assay: Test B postemergence plant response; conditions: for Plant response rating, Chickweed: Postemergence
In short: as §2

[9] = test system: windgrass (Apera spica-venti); assay: Test B postemergence plant response; conditions: for Plant response rating, Windgrass: Postemergence
In short: as §2

[10] = test system: winter barley (Hordeum vulgare); assay: Test B postemergence plant response; conditions: for Plant response rating, Barley: Postemergence, scale 0 to 100, 0 no effect, 100 complete control
In short: as §2

[11] = test system: barnyardgrass (Echinochloa crus-galli); assay: Test B flooded paddy test plant response
In short: (§3)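 Compounds were added directly to paddy water over 2-leaf-stage plants in pots flooded 3 cm above soil, water depth maintained. Visual injury scored against controls after 13 to 15 days in greenhouse, 0 (none) to 100 (complete control); dash indicates no result.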

[12] = test system: ducksalad (Heteranthera limosa); assay: Test B flooded paddy test plant response
In short: as §3

rice (Oryza sativa) = assay: Test B flooded paddy test plant response
In short: as §3

[13] = test system: umbrella sedge (Cyperus difformis); assay: Test B flooded paddy test plant response
In short: as §3

[14] = Postemergence, 31 g ai/ha, 0 to 100 scale (0 no effect, 100 complete control)
[15] = Postemergence, 125 g ai/ha, 0 to 100 scale, 0 no effect, 100 complete control
[16] = Preemergence, 31 g ai/ha, 0 to 100 scale, 0 is no effect, 100 is complete control
[17] = Preemergence, 125 g ai/ha, 0 to 100 scale (0 no effect, 100 complete control)
[18] = 8 g ai/ha, postemergence, 0-100 scale
[19] = 62 g ai/ha, scale 0 to 100, 0 no effect, 100 complete control
[20] = Flood (flooded paddy test), 62 g ai/ha, scale 0 to 100, 0 no effect, 100 complete control
[21] = Flood (flooded paddy test), 125 g ai/ha, scale 0 to 100, 0 no effect, 100 complete control
[22] = Flood (flooded paddy test), 250 g ai/ha, scale 0 to 100, 0 no effect, 100 complete control
[23] = Flood, 31 g ai/ha, scale 0 to 100

Cc1cc(-c2ccc(Cl)cc2)nn1-c1c(OC(=O)c2ccccc2)cnn(C)c1=O [Compound 48]
Plant response rating, Barnyardgrass [1, 14]: 20
Plant response rating, Barnyardgrass [1, 15]: 90
Plant response rating, Barnyardgrass [1, 16]: 60
Plant response rating, Barnyardgrass [1, 17]: 100
Plant response rating, Corn (corn (Zea mays); [14]): 20
Plant response rating, Corn (corn (Zea mays); [15]): 60
Plant response rating, Corn (corn (Zea mays); [17]): 80
Plant response rating, Foxtail, Giant [2, 14]: 30
Plant response rating, Foxtail, Giant [2, 15]: 80
Plant response rating, Foxtail, Giant [2, 16]: 90
Plant response rating, Foxtail, Giant [2, 17]: 100
Plant response rating, Crabgrass, Large [3, 14]: 20
Plant response rating, Crabgrass, Large [3, 15]: 80
Plant response rating, Crabgrass, Large [3, 16]: 60
Plant response rating, Crabgrass, Large [3, 17]: 100
Plant response rating, Morningglory [4, 14]: 0
Plant response rating, Morningglory [4, 15]: 0
Plant response rating, Morningglory [4, 16]: 0
Plant response rating, Morningglory [4, 17]: 0
Plant response rating, Pigweed [5, 14]: 20
Plant response rating, Pigweed [5, 15]: 30
Plant response rating, Pigweed [5, 16]: 0
Plant response rating, Pigweed [5, 17]: 0
Plant response rating, Velvetleaf [6, 14]: 20
Plant response rating, Velvetleaf [6, 15]: 70
Plant response rating, Velvetleaf [6, 16]: 0
Plant response rating, Velvetleaf [6, 17]: 0
Canarygrass plant response rating [7, 18]: 0
Plant response rating, Canarygrass ([7]; 16 g ai/ha): 0
Plant response rating, Canarygrass ([7]; 31 g ai/ha): 90
Chickweed plant response rating [8, 18]: 0
Plant response rating, Chickweed ([8]; 16 g ai/ha, scale 0 to 100): 0
Plant response rating, Chickweed ([8]; 31 g ai/ha, scale 0 to 100): 0
Plant response rating, Chickweed [8, 19]: 0
Windgrass plant response rating [9, 18]: 0
Plant response rating, Windgrass ([9]; 16 g ai/ha, scale 0 to 100): 40
Plant response rating, Windgrass ([9]; 31 g ai/ha, scale 0 to 100): 60
Plant response rating, Windgrass [9, 19]: 80
Barley plant response rating [10, 18]: 0
Plant response rating, Barley ([10]; 16 g ai/ha): 0
Plant response rating, Barley ([10]; 62 g ai/ha): 10
Plant response rating, Barnyardgrass [11, 20]: 0
Plant response rating, Barnyardgrass [11, 21]: 0
Plant response rating, Barnyardgrass [11, 22]: 30
Plant response rating, Barnyardgrass [11, 23]: 0
Plant response rating, Ducksalad [12, 20]: 0
Plant response rating, Ducksalad [12, 21]: 0
Plant response rating, Ducksalad [12, 22]: 30
Plant response rating, Ducksalad [12, 23]: 0
Plant response rating, Rice (rice (Oryza sativa); [20]): 0
Plant response rating, Rice (rice (Oryza sativa); [21]): 0
Plant response rating, Rice (rice (Oryza sativa); [22]): 0
Plant response rating, Rice (rice (Oryza sativa); [23]): 0
Plant response rating, Sedge, Umbrella [13, 20]: 0
Plant response rating, Sedge, Umbrella [13, 21]: 0
Plant response rating, Sedge, Umbrella [13, 22]: 50
Plant response rating, Sedge, Umbrella [13, 23]: 0
